Source: US20230295113A1, “NLRP3 MODULATORS” (ZOMAGEN BIOSCIENCES LTD, priority 2022, published 2023)

The compounds below were run on IL-1b (assay: Human Monocyte IL-1b Assay). Settings: Homo sapiens, Monocyte, fresh human whole blood; compound 0.5 h, 100 ng/mL LPS 3.5 h at 37° C., 5 mM ATP 45 min; IL-1b in supernatant by ELISA.
Type: cell-based
Description: Example 46: Human Monocyte IL-1b Assay
Serially diluted testing compounds were incubated with […] of fresh human whole blood for 0.5 hours. Cells were primed with 100 ng/mL lipopolysaccharide (LPS) for 3.5 hours at 37° C. followed by stimulation with 5 mM ATP for an additional 45 minutes. The concentration of IL-1b concentration in the supernatant was determined with commercially available ELISA kits. Negative controls are wells without stimulation, while positive controls are wells with stimulation but only DMSO without compounds added. After background subtraction, compound treatment wells were then normalized to the positive controls for IC50 calculations.

| Compound | IC50 [nM] |
| --- | --- |
| CN1CCC[C@@H]([C@@H](O)c2nnc(-c3ccc(C(F)(F)F)cc3O)c3c2CCC3)C1 (racemic) [Compound 43A, 2-(4-((R)-hydroxy((R)-1-methylpiperidin-3-yl)methyl)-6,7-dihydro-5H-cyclopenta[d]pyridazin-1-yl)-5-(trifluoromethyl)phenol] | < 500 |
| Cc1c(-c2ccc(C(F)(F)F)cc2O)nnc(C(O)C2CCCN(C)C2)c1C (stereo not drawn) [Compound 1, 2-(6-(hydroxy(1-methylpiperidin-3-yl)methyl)-4,5-dimethylpyridazin-3-yl)-5-(trifluoromethyl)phenol] | 500 to 3000 |
| Cc1c(C(=O)C2CCCN(C)C2)nnc(-c2ccc(C(F)(F)F)cc2O)c1C (stereo not drawn) [Compound 2, (6-(2-hydroxy-4-(trifluoromethyl)phenyl)-4,5-dimethylpyridazin-3-yl)(1-methylpiperidin-3-yl)methanone] | 500 to 3000 |
| Cc1c(-c2ccc(C(F)(F)F)cc2O)nnc(C(C)(O)C2CCCN(C)C2)c1C (stereo not drawn) [Compound 3, 2-(6-(1-hydroxy-1-(1-methylpiperidin-3-yl)ethyl)-4,5-dimethylpyridazin-3-yl)-5-(trifluoromethyl)phenol] | < 500 |
| Cc1cc(O)c(-c2ccc(C(O)C3CCCN(C)C3)nn2)c(F)c1 (stereo not drawn) [Compound 8, 3-fluoro-2-(6-(hydroxy(1-methylpiperidin-3-yl)methyl)pyridazin-3-yl)-5-methylphenol] | < 500 |
| Cc1cc(C(O)C2CCCN(C)C2)nnc1-c1ccc(C(F)(F)F)cc1O (stereo not drawn) [Compound 11, 2-(6-(hydroxy(1-methylpiperidin-3-yl)methyl)-4-methylpyridazin-3-yl)-5-(trifluoromethyl)phenol] | < 500 |
| Cc1cc(-c2ccc(C(F)(F)F)cc2O)nnc1C(O)C1CCCN(C)C1 (stereo not drawn) [Compound 12, 2-(6-(hydroxy(1-methylpiperidin-3-yl)methyl)-5-methylpyridazin-3-yl)-5-(trifluoromethyl)phenol] | 500 to 3000 |
| Cc1cc(C(=O)c2cccnc2)nnc1-c1ccc(C(F)(F)F)cc1O [Compound 13, (6-(2-hydroxy-4-(trifluoromethyl)phenyl)-5-methylpyridazin-3-yl)(pyridin-3-yl)methanone] | 500 to 3000 |
| Cc1cc(C(=O)C2CCCN(C)C2)nnc1-c1ccc(C(F)(F)F)cc1O (stereo not drawn) [Compound 14, (6-(2-hydroxy-4-(trifluoromethyl)phenyl)-5-methylpyridazin-3-yl)(1-methylpiperidin-3-yl)methanone] | < 500 |
| Cc1cc(C(C)(O)C2CCCN(C)C2)nnc1-c1ccc(C(F)(F)F)cc1O (stereo not drawn) [Compound 15, 2-(6-(1-hydroxy-1-(1-methylpiperidin-3-yl)ethyl)-4-methylpyridazin-3-yl)-5-(trifluoromethyl)phenol] | < 500 |
| Cc1cc(C(=NO)C2CCCN(C)C2)nnc1-c1ccc(C(F)(F)F)cc1O (stereo not drawn) [Compound 16, (6-(2-hydroxy-4-(trifluoromethyl)phenyl)-5-methylpyridazin-3-yl)(1-methylpiperidin-3-yl)methanone oxime] | < 500 |
| Cc1cc([C@@H](O)[C@@H]2CCCN(C)C2)nnc1-c1ccc(C(F)(F)F)cc1O [Compound 17A, 2-(6-((S)-hydroxy((R)-1-methylpiperidin-3-yl)methyl)-4-methylpyridazin-3-yl)-5-(trifluoromethyl)phenol] | < 500 |
| Cc1cc([C@H](O)[C@H]2CCCN(C)C2)nnc1-c1ccc(C(F)(F)F)cc1O [Compound 17C, 2-(6-((R)-hydroxy((S)-1-methylpiperidin-3-yl)methyl)-4-methylpyridazin-3-yl)-5-(trifluoromethyl)phenol] | < 500 |
| Cc1cc([C@@H](O)[C@H]2CCCN(C)C2)nnc1-c1ccc(C(F)(F)F)cc1O [Compound 17D, 2-(6-((S)-hydroxy((S)-1-methylpiperidin-3-yl)methyl)-4-methylpyridazin-3-yl)-5-(trifluoromethyl)phenol] | 500 to 3000 |
| [2H][C@@](O)(c1cc(C)c(-c2ccc(C(F)(F)F)cc2O)nn1)[C@@H]1CCCN(C)C1 [Compound 18, 2-(6-((S)-hydroxy((R)-1-methylpiperidin-3-yl)methyl-d)-4-methylpyridazin-3-yl)-5-(trifluoromethyl)phenol] | < 500 |
| Cc1cc(C(F)(F)F)cc(O)c1-c1ccc(C(O)C2CCCN(C)C2)nn1 (stereo not drawn) [Compound 20, 2-(6-(hydroxy(1-methylpiperidin-3-yl)methyl)pyridazin-3-yl)-3-methyl-5-(trifluoromethyl)phenol] | < 500 |
| Oc1cc(C(F)(F)F)ccc1-c1ccc(CC2(O)CCCNC2)nn1 (stereo not drawn) [Compound 21, 3-((6-(2-hydroxy-4-(trifluoromethyl)phenyl)pyridazin-3-yl)methyl)piperidin-3-ol] | 3000 to 10000 |

The next lines start with the values.

| IC50 [nM] | Compound |
| --- | --- |
| 3000 to 10000 | Cc1c(-c2ccc(C(F)(F)F)cc2O)nnc(C(F)c2cccnc2)c1C (stereo not drawn) [Compound 4, 2-(6-(fluoro(pyridin-3-yl)methyl)-4,5-dimethylpyridazin-3-yl)-5-(trifluoromethyl)phenol] |
| < 500 | Cc1c(CC2CCCN(C)C2)nnc(-c2ccc(C(F)(F)F)cc2O)c1C (stereo not drawn) [Compound 5, 2-(4,5-dimethyl-6-((1-methylpiperidin-3-yl)methyl)pyridazin-3-yl)-5-(trifluoromethyl)phenol] |
| 500 to 3000 | COC(c1nnc(-c2ccc(C(F)(F)F)cc2O)c(C)c1C)C1CCCN(C)C1 (stereo not drawn) [Compound 6, 2-(6-(methoxy(1-methylpiperidin-3-yl)methyl)-4,5-dimethylpyridazin-3-yl)-5-(trifluoromethyl)phenol] |
| < 500 | Cc1cc(O)c(-c2ccc(CC3CCCN(C)C3)nn2)c(F)c1 (stereo not drawn) [Compound 7, 3-fluoro-5-methyl-2-(6-((1-methylpiperidin-3-yl)methyl)pyridazin-3-yl)phenol] |
| < 500 | CN1CCCC(C(O)c2nnc(-c3ccc(C(F)(F)F)cc3O)c3ccccc23)C1 (stereo not drawn) [Compound 9, 2-(4-(hydroxy(1-methylpiperidin-3-yl)methyl)phthalazin-1-yl)-5-(trifluoromethyl)phenol] |
| 3000 to 10000 | Cc1cc(C(O)c2cccnc2)nnc1-c1ccc(C(F)(F)F)cc1O (stereo not drawn) [Compound 10, 2-(6-(hydroxy(pyridin-3-yl)methyl)-4-methylpyridazin-3-yl)-5-(trifluoromethyl)phenol] |
| < 500 | Cc1cc([C@H](O)[C@@H]2CCCN(C)C2)nnc1-c1ccc(C(F)(F)F)cc1O [Compound 17B, 2-(6-((R)-hydroxy((R)-1-methylpiperidin-3-yl)methyl)-4-methylpyridazin-3-yl)-5-(trifluoromethyl)phenol] |
| < 500 | Cc1cc(C)c(-c2ccc(C(O)C3CCCN(C)C3)nn2)c(O)c1 (stereo not drawn) [Compound 19, 2-(6-(hydroxy(1-methylpiperidin-3-yl)methyl)pyridazin-3-yl)-3,5-dimethylphenol] |

Same assay, conditions: fresh human whole blood; compound 0.5 h, 100 ng/mL LPS 3.5 h at 37° C., 5 mM ATP 45 min; IL-1b in supernatant by ELISA

| IC50 [nM] | Compound |
| --- | --- |
| 500 to 3000 | CN1CCC[C@@H]([C@@H](O)c2nnc(-c3ccc(C(F)(F)F)cc3O)c3c2CCC3)C1 (racemic) [Compound 43B, 2-(4-((R/S)-hydroxy((R/S)-1-methylpiperidin-3-yl)methyl)-6,7-dihydro-5H-cyclopenta[d]pyridazin-1-yl)-5-(trifluoromethyl)phenol] |
| < 500 | CN1CCC[C@@H]([C@@H](O)c2nnc(-c3ccc(C(F)(F)F)cc3O)c3c2CCC3)C1 (racemic) [Compound 44, 2-(4-((R)-hydroxy((R)-1-methylpiperidin-3-yl)methyl)-6,7-dihydro-5H-cyclopenta[d]pyridazin-1-yl)-5-(trifluoromethyl)phenol] |
